The source of these data is article PMC11997503, “A BPTF-specific PROTAC degrader enhances NK cell-based cancer immunotherapy” (Molecular Therapy, 2025).

In assay [1] the target is T1, BRD9 (Homo sapiens, UniProt Q9H8M2).
T1 construct: bromodomain
T1 sequence (Q9H8M2 134-240 limits assumed): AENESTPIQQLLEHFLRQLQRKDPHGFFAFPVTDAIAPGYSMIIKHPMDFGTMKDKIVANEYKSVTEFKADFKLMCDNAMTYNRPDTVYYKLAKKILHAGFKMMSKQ
Kind of assay: SPR (Biacore T200, NiHC1500M chip). In kind it is binding.

For assay [2], the target named is T2, BPTF (Homo sapiens, UniProt Q12830).
T2 construct: bromodomain
In words: SPR (Biacore T200, NiHC1500M chip). In kind it is binding. (Surface plasmon resonance follows binding to a sensor surface in real time, without labels.)

Assay [3] concerns the target T3, CRBN (Homo sapiens, UniProt Q96SW2).
T3 construct: with BPTF
In words: co-IP of BPTF with CRBN in 8d-treated Huh7 cells; pomalidomide rescue; N-methyl glutarimide control […] inactive. In kind it is cell-based.

Assay [4] deals with T4, CECR2 (Homo sapiens, UniProt Q9BXF3).
T4 construct: bromodomain
T4 sequence (Q9BXF3 434-538 limits assumed): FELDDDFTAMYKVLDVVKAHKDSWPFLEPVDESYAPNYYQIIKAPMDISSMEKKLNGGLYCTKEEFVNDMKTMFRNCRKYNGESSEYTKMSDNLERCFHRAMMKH
Kind of assay: SPR positive control (Figure S7D). In kind it is binding.

T3 sequence (Q96SW2 whole entry, other chains not shown): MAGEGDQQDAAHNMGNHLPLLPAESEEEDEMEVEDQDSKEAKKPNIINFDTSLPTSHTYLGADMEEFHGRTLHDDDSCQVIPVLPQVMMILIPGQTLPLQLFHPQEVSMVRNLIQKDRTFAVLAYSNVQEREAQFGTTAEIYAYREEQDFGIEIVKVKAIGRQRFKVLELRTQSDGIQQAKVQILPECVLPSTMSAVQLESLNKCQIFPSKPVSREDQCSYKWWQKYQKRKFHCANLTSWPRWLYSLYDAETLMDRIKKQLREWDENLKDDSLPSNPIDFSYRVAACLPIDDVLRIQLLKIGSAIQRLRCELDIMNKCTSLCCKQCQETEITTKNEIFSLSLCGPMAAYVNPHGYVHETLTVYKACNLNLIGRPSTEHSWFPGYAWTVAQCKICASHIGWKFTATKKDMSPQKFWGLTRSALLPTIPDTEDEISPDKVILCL

As to `CS(=O)(=O)c1nc(NCCCn2cccn2)cc(-c2ccc(NCc3cn(CCOCCOCCOCCOCCOCCNc4cccc5c4C(=O)N(C4CCC(=O)NC4=O)C5=O)nn3)cc2)n1` (stereo not shown) [8d, 4-((17-(4-(((4-(6-((3-(1H-pyrazol-1-yl)propyl)amino)-2-(methylsulfonyl)pyrimidin-4-yl)phenyl)amino)methyl)-1H-1,2,3-triazol-1-yl)-3,6,9,12,15 pentaoxaheptadecyl)amino)-2-(2,6-dioxopiperidin-3-yl) isoindoline-1,3-dione], the Kd in assay [1] was determined as 28.8 µM; in assay [2], 0.563 µM. The “co-IP of BPTF with CRBN in 8d-treated Huh7 cells; pomalidomide rescue; N-methyl” value in assay [3] is given as “through direct recruitment of CRBN, 8d facilitates the proteasome-dependent selective degradation of BPTF”.

For the compound `CN(C)CCCOc1ccc(-c2cc(NCCCn3cccn3)nc(S(C)(=O)=O)n2)cc1` [TP238], the “CECR2 bromodomain binding affinity” value in assay [4] is recorded as “minimal affinity for the CECR2 bromodomain (Figure S7D), which is known to strongly bind to TP238 as a positive control”.

One may read the Kd as the free concentration of one partner at which half of the binding sites on the other are occupied at equilibrium, for simple one-to-one binding. Low values mean tighter binding, high ones weaker binding.
